# Reference: patent US9844556B2, “Preventive/therapeutic method and preventive/therapeutic agent for complications after cataract surgery” (KOWA COMPANY, LTD., priority 2015, dated 2017)
# Assays:
# [1] = system: Human lens epithelial cells (HLEpiC); experiment: Inhibitory action on actin stress fiber formation (phalloidin staining, confocal microscopy); assay type: cell-based; settings: treated about an hour
# Description: Human lens epithelial cells (HLEpiC (ScienCell Research Laboratories)) were diluted with a medium (Epithelial Cell Medium (ScienCell Research Laboratories)), dispensed to each well of Poly-L-lysine (ScienCell Research Laboratories) coated Imaging Chamber CG at 100 μL/well (about 5000 cells/cm^2), and cultured in a carbon dioxide incubator (37° C., 5% CO2) until about 50% confluent. The medium was removed with vacuum suction and a test substance, a positive control, a comparative control, or the medium (control) at each concentration given below was added to each well at 300 μL/well:
# Test substance: Ripasudil with a concentration of 10 μM, 100 μM or 1 mM,
# Positive control: Cytochalasin D with a concentration of 2 μM,
# These were treated in a carbon dioxide incubator (37° C., 5% CO2) for about an hour, and then washed once with the medium. 4% Paraformaldehyde Phosphate Buffer Solution (Wako Pure Chemical Industries, Ltd.) (hereinafter, referred to as a fixative solution) was added at 300 μL/well, and fixation was carried out at room temperature for 2 minutes. After washing with the medium, 0.5% Triton X-100 (Roche Diagnostics K.K.) was added at 300 μL/well, and penetrated at room temperature for 2 minutes. After washing with the medium, the fixative solution was added at 300 μL/well, and fixation was carried out at room temperature for 20 minutes.
# Separately, 25 μL of 14 μM Actin-Stain™ 555 phalloidin (Cytoskeleton, Inc.) (hereinafter, referred to as Phalloidin) was added to 3475 μL of 10 mM phosphate buffered saline (Wako Pure Chemical Industries, Ltd.) to produce 100 nM Phalloidin.
# This 100 nM Phalloidin was added to each well washed with the medium at 200 μL/well, and staining was carried out at room temperature in a dark place for about 60 minutes.
# After washing with the medium, the chamber was removed, and […] Mounting Medium with DAPI (Vector Laboratories, Inc.) was dropped onto a cover glass with a few drops. A slide glass was placed thereon and this was left to stand at room temperature in a dark place for 30 minutes or more, and adhesion and nuclear staining were carried out and then observed by a confocal laser scanning microscope.
# HLEpiC [2] = experiment: Inhibitory action on cell migration (Oris Cell Migration plate); assay type: cell-based, human; settings: about 24 and 48 hours after treatment
# Description: HLEpiC was diluted with a medium (Epithelial Cell Medium) and dispensed to Poly-L-lysine coated Oris™ Cell Migration 96 well plate, to which a stopper was firmly attached, at 50 μL/well (25000 cells/well) and cultured in a carbon dioxide incubator (37° C., 5% CO2) for 24 hours. The stopper was removed, and after brief washing with the medium, a solution obtained by adding 5 μL of 10 mM Cell Tracker Green Fluorescent Probe (Lonza Walkersville, Inc.) to 4995 μL of the medium was added at 100 μL/well, and the cells were stained in a carbon dioxide incubator (37° C., 5% CO2) for about 30 minutes. After brief washing with the medium, the medium was further added and the cells were cultured in a carbon dioxide incubator (37° C., 5% CO2) for about 30 minutes.
# After brief washing with the medium, a test substance, a positive control, a comparative control or the medium (control) at each concentration given below was added at 100 μL/well.
# (§1) Test substance: Ripasudil with a concentration of […], 100 μM or 1 mM,
# Positive control: CD with a concentration of 2 μM,
# These were cultured in a carbon dioxide incubator (37° C., 5% CO2). The state of HLEpiC in the Detection Zone in each sample was observed by a confocal laser scanning microscope about 24 hours after the treatment and 48 hours after the treatment.
# [3] = system: Human lens epithelial cells (HLEpiC); experiment: Reversibility of inhibition of actin stress fiber formation after removal; assay type: cell-based; settings: recultured about 24 hours after removal
# Description: After removal of the test substance, positive control or comparative control in Example 1, the cells were recultured for about another 24 hours, treated in accordance with the operation in Example 1, and then observed by a confocal laser scanning microscope in the same manner as in Example 1 to observe the reversibility of actin stress fibers.
# HLEpiC [4] = experiment: Determination of G-actin/F-actin ratio using G-Actin/F-Actin In Vivo Assay Kit; assay type: cell-based, human; settings: 2 μM, about an hour; control 1.16
# Description: HLEpiC was diluted with a medium (Epithelial Cell Medium), and dispensed to a Poly-L-lysine coated T-75 flask at about 5000 cells/cm^2, and cultured in a carbon dioxide incubator (37° C., 5% CO2) until about 50% confluent. A test substance, a positive control or the medium (control) at each concentration given below was added to each flask at 20 mL.
# as §1
# Positive control: CD with a concentration of 2 μM, and
# These were treated in a carbon dioxide incubator (37° C., 5% CO2) for about an hour.
# To 20 mL of Lysis and F-actin stabilization buffer was added 200 μL of 100 mM ATP stock solution and 200 μL of 100× Protease inhibitor cocktail stock to produce LAS2 buffer, and this was incubated in a carbon dioxide incubator (37° C.) for about 30 minutes. Warmed LAS2 buffer was added at 2.5 mL to each flask in which the medium was removed with vacuum suction.
# Next, adherent HLEpiC was completely scraped with a cell scraper and transferred with the LAS2 buffer to a conical tube, and HLEpiC was crushed with a micropipette (hereinafter, referred to as cell solution). This cell solution was incubated in a carbon dioxide incubator (37° C.) for about 10 minutes and then centrifuged for 10 minutes (2000 rpm, room temperature). The supernatant was dispensed into an ultracentrifugal tube at 1.8 mL and centrifuged for an hour with an ultracentrifuge (100,000× g, 37° C.). At this time, F-actin is precipitated and G-actin remains in the supernatant.
# The supernatant was transferred to a conical tube while being careful not to suck F-actin precipitates.
# To precipitates of each sample was added 1.8 mL of F-actin depolymerizing buffer, and this was incubated under ice-cold conditions for an hour to depolymerize actin.
# From each supernatant sample and precipitate sample, 100 μL each was put in a 1.5 mL Eppendorf tube, and 25 μL of 5×SDS sample buffer was added and stirred.
# Each sample was boiled in a boiling water bath for 5 minutes.
# Each sample was subjected to SDS-polyacrylamide gel electrophoresis, followed by Western blotting.
# Next, after treatment using a Western blotting detection reagent (ECL Select Western Blotting Detection Reagent, GE Healthcare Japan), proteins were detected using a Lumino image analyzer. The quantities of G-actin and F-actin were determined using an analysis software (ImageQuant TL, GE Healthcare Japan) and the G-actin/F-actin ratio was calculated.
# The variation in the quantity of F-actin required to form actin stress fibers was evaluated by comparison with the G-actin/F-actin ratio of untreated (Control) cells.
# HLEpiC [5] = experiment: Reversibility of inhibition of cell migration after removal; assay type: cell-based, human; settings: for time after removal at which Detection Zone was filled with HLEpiC: then removal
# Description: After the operation in Example 4, the test substance, the positive control, or the comparative control was removed, and after brief washing with the medium, the medium was added at 100 μL/well, and the cells were cultured in a carbon dioxide incubator (37° C., 5% CO2).
# [6] = system: Soemmerring's ring, posterior capsule opacification (PCO); settings: cited from earlier work
# myofibroblasts = settings: cited from earlier work
# bovine lens cells = settings: cited from earlier work
# [7] = system: hyalocyte-containing collagen gel; settings: cited from earlier work
smiles,measurement,setting,value
"C=C1[C@@H](C)[C@H]2[C@H](Cc3ccccc3)NC(=O)[C@]23[C@H](OC(C)=O)/C=C/[C@@](C)(O)C(=O)[C@@H](C)C/C=C/[C@H]3[C@@H]1O [Cytochalasin D, reference compound]",actin stress fibers (observation),[1]; 2 μM,significantly disappear
same,cell migration into Detection Zone (observation),HLEpiC [2]; 2 μM,inhibitory action on cell migration was further recognized
same,reversibility of actin stress fibers,[3]; 2 μM,recovered
same,G-actin/F-actin ratio,HLEpiC [4],25.03
same,time after removal at which Detection Zone was filled with HLEpiC,HLEpiC [5]; 2 μM treatment,about 48 hours
CC1CNCCN1S(=O)(=O)c1cccc2cnccc12 (stereo not shown) [H-7],effect on posterior capsule opacification (PCO),[6],ineffective
same,resolving Soemmerring's ring,[6],effective
Cc1cncc2cccc(S(=O)(=O)N3CCCNC[C@@H]3C)c12 [H-1152],transdifferentiation and contraction of myofibroblasts induced by TGF-β,myofibroblasts,inhibit the transdifferentiation and contraction
O=S(=O)(c1cccc2cnccc12)N1CCCNCC1 [HA-1077],transdifferentiation and contraction of myofibroblasts induced by TGF-β,myofibroblasts,inhibit the transdifferentiation and contraction
"O=c1[nH]ccc2c(S(=O)(=O)N3CCCNCC3)cccc12 [HF, Hydroxyfasudil]",contraction induced by cytokines such as PDGF-BB and TGF-β2,bovine lens cells,inhibited contraction
O=S(=O)(c1cccc2c(I)cccc12)N1CCCNCC1 [ML-7],transdifferentiation and contraction of myofibroblasts induced by TGF-β,myofibroblasts,inhibit the transdifferentiation and contraction
"C[C@@H](N)[C@H]1CC[C@H](C(=O)Nc2ccncc2)CC1 [Y-27632, reference compound]",actin stress fibers (observation),[1]; 1 mM,disappear
same,cell migration into Detection Zone (observation),HLEpiC [2]; 1 mM,inhibitory action on cell migration was also recognized
same,reversibility of actin stress fibers,[3]; 1 mM,recovered
same,transdifferentiation and contraction of myofibroblasts induced by TGF-β,myofibroblasts,inhibit the transdifferentiation and contraction
same,state of Detection Zone about 48 hours after removal,"HLEpiC [5]; 1 mM treatment, about 48 hours after removal",not filled with HLEpiC
same,time after removal at which Detection Zone was filled with HLEpiC,HLEpiC [5]; 1 mM treatment,116 h
same,contraction induced by cytokines such as PDGF-BB and TGF-β2,bovine lens cells,inhibited contraction
O=S(=O)(c1cccc2cnccc12)N1CCCNCC1 [fasudil],hyalocyte-containing collagen gel contraction,[7],inhibits
